Like-named read-outs stand apart in the source and are kept apart here.
Test system: A2058 melanoma cells
Assay: xCELLigence impedance-based long-term antiproliferative/cytotoxic measurement
Format: cell-based, human
Conditions: for IC50: Homo sapiens
Text: One of the major requirements for a drug-delivery conjugate is the ability to provide the antitumor activity of the attached drug inside the cells. The antiproliferative/cytotoxic effect of conjugates was investigated by an impedimetric technique, xCELLigence System (ACEA Biosciences, San Diego, CA, USA). The real-time measurement of the impedance change, which is in direct correlation with the number of adhered cells on an electrode surface, makes this impedimetric assay sensitive enough for cytotoxicity experiments. In the event of a cytotoxic compound, the cells detach from the electrode surface and a drop in the impedance – given as Cell index values – could be observed.
IC50 values – a concentration that decreases the cell viability by 50% – were calculated from Cell index values obtained at 48 h and 72 h for each concentration and used for comparing the effects of conjugates. It is clearly seen that the presence of acylated Lys could increase almost 10-fold the antitumor activity (p < 0.001) of parent conjugate (GnRH-III(Dau=Aoa)). […]
Cell proliferation and cytotoxicity measurement
The antiproliferative/cytotoxic effect of conjugates compared with Dau was assessed using the xCELLigence SP System (ACEA Biosciences, San Diego, CA, USA). This system uses a so-called E-plate having gold microelectrodes covered the surface of each well and quantifies different cellular activities (e.g. cell proliferation, cell adhesion) by real-time measuring the impedance. The detected impedance change is in direct correlation with the cell number or the electrode surface covered by the attached cells. A relative and dimensionless parameter, Cell index (CI), was calculated from the detected impedance change by the following formula: […]
where Zi is the impedance at a given time point, Z0 is the impedance at t = 0 h, and Fi is a constant depending on the frequency (F10kHz = 15). […]
For the treatment of the cells, the conjugates and the free drug were applied in 10−12–10−4 M final concentrations and the cells were monitored for further 72 h. […]
In order to evaluate whether the conjugates could elicit their antiproliferative/cytotoxic character in short-term, A2058 cells (10^4 cells/well) were seeded in 96-well plate 24 h before the treatment. […] After treating the cells with compounds in 10−6–10−5 M concentrations, where their most significant cytotoxic effect was detected in case of the long-term treatments, the cells were washed twice with serum-free medium and cultured for further 48 h in serum-containing medium. The viability of cells was determined by alamarBlue-assay (Thermo Fisher Scientific, Waltham, MA, USA) according to the manufacturer’s instruction. After 4 h incubation with the alamarBlue® reagent, the fluorescence intensity of the reaction product

[1] = A2058 cells, Cell index time course, Figure S5

Structure (SMILES): COc1cccc2c1C(=O)c1c(O)c3c(c(O)c1C2=O)C[C@@](O)(C(C)=O)C[C@@H]3O[C@H]1C[C@H](N)[C@H](O)[C@H](C)O1 [daunorubicin]
- concentrations at which the tumor-growth inhibitory effect was elicited (time-course study) [1]: 10^–6 to 10^−4 M
- time after treatment at which the effect on Cell index set in [1]: 0 to 5 h
- IC50 (A2058, 48 h, read-out: 48 h IC50): 190 ± 17 nM
- IC50 (A2058, 72 h, read-out: 72 h IC50): 53 ± 9 nM

From PMC6178282, “Comparative cell biological study of in vitro antitumor and antimetastatic activity on melanoma cells of GnRH-III-containing conjugates modified with short-chain fatty acids” (Beilstein Journal of Organic Chemistry, 2018)
